Reference: patent US9675714B1, “Graphene based theranostics for tumor targeted drug/gene delivery and imaging” (University of South Florida, priority 2013, dated 2017)

System: A549 lung cancer cells
Assay: Cellular uptake and intracellular drug release by confocal laser scanning microscopy
Format: cell-based
Settings: 20 h incubation
Protocol: FIGS. 15A-15F show confocal microscopic images of A549cells after 20 h incubation with doxorubicin (15A-15C) or doxorubicin-CMG nanoparticles (15D-15F). […] Nuclei were stained with DAPI as a control (15A and […]). DAPI and doxorubicin images were merged for comparison (15C-15F).
To test the drug delivery capacity of CMG NPs, DOX was loaded into CMG nanoparticles by physical adsorption. The UV-Vis spectrum of DOX-CMG nanoparticles was used to confirm the loading of DOX onto CMG nanoparticles. […] DOX loading was confirmed by the presence of the characteristic absorbance peak of DOX-CMG at 485 nm (FIG. 12,b), which corresponded to the peak of free DOX (FIG. 12,c). The hydrodynamic diameter of DOX-loaded CMG nanoparticles was about 91 nm and was similar to the CMGs alone (FIGS. 5A-5F). The loading capacity of CMG nanoparticles for DOX was investigated by mixing a fixed concentration of CMG (2 mg/mL) with various initial DOX concentrations as shown in FIG. 13. […] The drug-release kinetics of DOX-CMG nanoparticles was determined at pH about 5.1 and about 7.4 (FIG. 14). […] To determine the effectiveness of the DOX-CMG nanoparticles in killing A549 cancer cells, cells were treated with DOX-CMG nanoparticles with increasing concentrations of DOX, or free DOX, for about 72 h and analyzed using the Presto Blue cell viability assay.

COc1cccc2c1C(=O)c1c(O)c3c(c(O)c1C2=O)C[C@@](O)(C(=O)CO)C[C@@H]3O[C@H]1C[C@H](N)[C@H](O)[C@H](C)O1 [DOX, doxorubicin]
subcellular localization of DOX: concentrated in the nuclei
